Assay results taken from patent publication US9963463B2, “Urea-substituted indanes as P38 map kinase inhibitors” (TORRENT PHARMACEUTICALS LIMITED, priority 2014, dated 2018).

How the values were obtained:
[1] = target: T1, purified recombinant human p38 alpha MAPK (Homo sapiens, UniProt Q16539); test: Inhibition of p38 alpha MAPK activity, TR-FRET kinase assay; assay type: biochemical; conditions: Concentration 1 μM; for inhibition at 1 µM: read-out: P38α Inhibition
T1 construct: purchased Millipore, USA
Method in brief: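 Recombinant human p38α preincubated 15 min at RT with compound (0.5–1.0% DMSO), then 30 nM biotinylated GST-ATF2 and 100 μM ATP added for 60 min at RT. Stopped with EDTA; Eu-anti-phospho-ATF2 and APC-streptavidin detection, 60 min. % inhibition from 665/615 nm TR-FRET ratio.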

[2] = tested on: cigarette smoke induced Neutrophil accumulation in BAL Fluid; test: Acute mouse model of airway inflammation (tobacco smoke), BAL neutrophils; assay type: in vivo; conditions: mice, aerosol exposure 25 minutes; for Neutrophil (*10^3 cells/animal): BAL fluid, Mean ± SEM; for % Inhibition: neutrophil vs vehicle group
Excerpt: In vivo efficacy evaluation of compounds in animal model of airway inflammation: The tobacco smoke induced airway inflammation model is used for in-vivo efficacy of compound. Many investigators have used acute tobacco smoke (TS) exposure in rodents as models of airway inflammation for quick screening of anti-inflammatory therapies (J Pharmacol Exp Ther. 2008; 324(3):921-9; J Pharmacol Exp Ther. 2010; 332(3):764-75; Journal of Inflammation 2013, 10(Suppl 1):31 and Eur Respir J Suppl 2006; 663s:3850).
A: Efficacy Studies in Acute Mouse Model of Airway Inflammation
Mice were exposed to tobacco smoke (TS) in an acrylic chamber. Animals were exposed to TS from 8, 12, 16 cigarettes on day 1, day 2, day 3 respectively. From day 4 onwards till day 11, animals were exposed to TS from 20 cigarettes per day. Like human COPD associated inflammation, acute exposure of mice to TS induced significant inflammatory cell, predominantly neutrophil recruitment to lungs as compared to air exposed control mice (BALF neutrophil levels, nil in air control group vs 178±29.1*10^3 cells/animal in smoke exposed vehicle group).
Lung delivery of test compound was achieved by whole body aerosol exposure for 25 minutes in a chamber. Mice were divided in different dose groups and exposed in a chamber for 25 minutes with vehicle or Compound 12 (0.3 mg/ml) or Compound 12 (3 mg/ml). A total quantity of 3.5 ml of either vehicle or test compound formulation was nebulized in a chambers to respective groups over 25 mins period. Test compounds were administered 2 hr prior to TS exposure from day 6 to day 11. Bronchoalveolar lavage (BAL) was performed 24 hr post last TS exposure.
Trachea of animal was cannulated using catheter. Phosphate Buffer Saline (PBS) was used as lavage fluid. A volume of 0.5 ml was gently instilled and withdrawn and collected in microcentrifuge tube placed on ice. This procedure was repeated further 2 times.
Lavage fluid was separated from cells by centrifugation and supernatant separated. The cell pallet was resuspended in known volume of PBS. Cells in aliquot were stained using Turk solution and total cell numbers were calculated by counting Turk stained aliquot under microscope using haemocytometer.
The residual cell suspension was resuspended and slides prepared using cyto centrifuge technique (Cytospin 4, Thermo Shandon). The slides were then fixed with methanol, air dried and stained with May Grunwald Giemsa stain. Up to 300 cells were counted and differentiated using standard morphometric techniques under light microscopy.
All results are presented at individual data for each animal and mean value calculated for each group. Percentage inhibition for the neutrophil was calculated for Compound 12 treatment group against vehicle group. Results are summarized herein below: […]

T1 sequence (Q16539 whole entry): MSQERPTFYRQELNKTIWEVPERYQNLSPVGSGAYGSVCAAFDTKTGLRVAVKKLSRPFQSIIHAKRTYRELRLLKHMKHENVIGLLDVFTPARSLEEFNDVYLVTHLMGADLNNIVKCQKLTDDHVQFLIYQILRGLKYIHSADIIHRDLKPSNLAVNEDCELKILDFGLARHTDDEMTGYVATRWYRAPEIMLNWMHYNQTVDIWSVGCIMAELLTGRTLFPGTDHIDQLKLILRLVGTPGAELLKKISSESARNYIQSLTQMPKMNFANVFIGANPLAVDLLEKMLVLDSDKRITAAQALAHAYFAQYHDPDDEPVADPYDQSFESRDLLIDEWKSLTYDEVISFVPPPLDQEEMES

`CC(C)(C)c1cc(NC(=O)Nc2ccc(OCCN3CCN(CC4CC4)C(=O)C3)c3c2CCC3)n(-c2ccccc2)n1` [Compound 61, 1-(3-tert-butyl-1-phenyl-1H-pyrazol-5-yl)-3-(7-{2-[4-(cyclopropylmethyl)-3-oxopiperazin-1-yl]ethoxy}-2,3-dihydro-1H-inden-4-yl)urea] showed an inhibition at 1 µM [1] of 60 to 80%.
`COc1ccc(-n2nc(C(C)(C)C)cc2NC(=O)Nc2ccc(OCCN3CCN(CC4CC4)C(=O)C3)c3c2CCC3)cc1` [Compound 17, 1-[3-tert-butyl-1-(4-methoxyphenyl)-1H-pyrazol-5-yl]-3-(7-{2-[4-(cyclopropylmethyl)-3-oxopiperazin-1-yl]ethoxy}-2,3-dihydro-1H-inden-4-yl)urea] showed an inhibition at 1 µM [1] of 60 to 80%.
`CCS(=O)(=O)Nc1cc(C(C)(C)C)cc(NC(=O)Nc2ccc(OCCN3CCn4c(nnc4-c4ccc(O)cc4O)C3)c3c2CCC3)c1OC` [Compound 49, N-(5-tert-butyl-3-{[(7-{2-[3-(2,4-dihydroxyphenyl)-5,6-dihydro[1,2,4]triazolo[4,3-a]pyrazin-7(8H)-yl]ethoxy}-2,3-dihydro-1H-inden-4-yl)carbamoyl]amino}-2-methoxyphenyl)ethanesulfonamide] was tested, and the inhibition at 1 µM [1] was 80 to 100%.
Work on `CC(C)(C)c1cc(NC(=O)Nc2ccc(OCC(=O)N3CCn4c(nnc4C(F)(F)F)C3)c3c2CCC3)n(-c2ccc(C3CCCCC3)cc2)n1` [Compound 3, 1-[3-tert-butyl-1-(4-cyclohexylphenyl)-1H-pyrazol-5-yl]-3-(7-{2-oxo-2-[3-(trifluoromethyl)-5,6-dihydro[1,2,4]triazolo[4,3-a]pyrazin-7(8H)-yl]ethoxy}-2,3-dihydro-1H-inden-4-yl)urea] yielded an inhibition at 1 µM [1] of 20 to 40%.
In the case of `Cc1ccc(-n2nc(C(C)(C)C)cc2NC(=O)Nc2ccc(OCCN3CCN(CC4CC4)C(=O)C3)c3c2CCC3)cc1` [Compound 12, 1-[3-tert-butyl-1-(4-methylphenyl)-1H-pyrazol-5-yl]-3-(7-{2-[4-(cyclopropylmethyl)-3-oxopiperazin-1-yl]ethoxy}-2,3-dihydro-1H-inden-4-yl)urea], the inhibition at 1 µM [1] is reported as 80 to 100%, the “Neutrophil (*10^3 cells/animal)” value ([2]; formulation strength 0.3 mg/ml) is reported as 107 ± 18.5 *10^3 cells/animal and the “Neutrophil (*10^3 cells/animal)” value ([2]; formulation strength 3 mg/ml) is reported as 69.6 ± 11.1 *10^3 cells/animal. For the same compound, the “% Inhibition” value ([2]; formulation strength 0.3 mg/ml) was 40% and the “% Inhibition” value ([2]; formulation strength 3 mg/ml) was 61%.
`Cc1ccccc1-n1nc(C(C)(C)C)cc1NC(=O)Nc1ccc(OCCN2CCN(CC3CC3)C(=O)C2)c2c1CCC2` [Compound 62, 1-[3-tert-butyl-1-(2-methylphenyl)-1H-pyrazol-5-yl]-3-(7-{2-[4-(cyclopropylmethyl)-3-oxopiperazin-1-yl]ethoxy}-2,3-dihydro-1H-inden-4-yl)urea] gave an inhibition at 1 µM [1] of 40 to 60%.
Work on `CC(C)(C)c1cc(NC(=O)Nc2ccc(OCC(=O)N3CCn4c(nnc4C(F)(F)F)C3)c3c2CCC3)n(-c2ccccc2)n1` [Compound 4, 1-(3-tert-butyl-1-phenyl-1H-pyrazol-5-yl)-3-(7-{2-oxo-2-[3-(trifluoromethyl)-5,6-dihydro[1,2,4]triazolo[4,3-a]pyrazin-7(8H)-yl]ethoxy}-2,3-dihydro-1H-inden-4-yl)urea] yielded an inhibition at 1 µM [1] of 60 to 80%.
For `COc1c(NC(=O)Nc2cc(C)c(OCCN3CCn4c(nnc4-c4cc(Cl)ccc4O)C3)c3c2CCC3)cc(C(C)(C)C)cc1NS(C)(=O)=O` [Compound 73, N-(5-tert-butyl-3-{[(7-{2-[3-(5-chloro-2-hydroxyphenyl)-5,6-dihydro[1,2,4]triazolo[4,3-a]pyrazin-7(8H)-yl]ethoxy}-6-methyl-2,3-dihydro-1H-inden-4-yl)carbamoyl]amino}-2-methoxyphenyl)methanesulfonamide], the inhibition at 1 µM [1] was 40 to 60%.
Compound `COc1c(NC(=O)Nc2ccc(OCCCN3CCN(CC4CC4)C(=O)C3)c3c2CCC3)cc(C(C)(C)C)cc1NS(C)(=O)=O` [Compound 41, N-(5-tert-butyl-3-{[(7-{3-[4-(cyclopropylmethyl)-3-oxopiperazin-1-yl]propoxy}-2,3-dihydro-1H-inden-4-yl)carbamoyl]amino}-2-methoxyphenyl) methanesulfonamide] has an inhibition at 1 µM [1] of 60 to 80%.
For `CCCSc1ccccc1-c1nnc2n1CCN(CCOc1ccc(NC(=O)Nc3cc(C(C)(C)C)cc(NS(=O)(=O)CC)c3OC)c3c1CCC3)C2` [Compound 50, N-[5-tert-butyl-2-methoxy-3-({[7-(2-{3-[2-(propylsulfanyl)phenyl]-5,6-dihydro[1,2,4]triazolo[4,3-a]pyrazin-7(8H)-yl}ethoxy)-2,3-dihydro-lH-inden-4-yl]carbamoyl}amino)phenyl] ethanesulfonamide], the “P38α Inhibition” value [1] was “+++++ (+++++ = Inhibition ≥80% ≥ 100%)”.
Work on `CSc1ccccc1-c1nnc2n1CCN(C(=O)COc1ccc(NC(=O)Nc3cc(C(C)(C)C)nn3-c3ccc(O)c(Cl)c3)c3c1CCC3)C2` [Compound 9, 1-[3-tert-butyl-1-(3-chloro-4-hydroxyphenyl)-1H-pyrazol-5-yl]-3-[7-(2-{3-[2-(methylsulfanyl)phenyl]-5,6-dihydro[1,2,4]triazolo[4,3-a]pyrazin-7(8H)-yl}-2-oxoethoxy)-2,3-dihydro-1H-inden-4-yl]urea] yielded an inhibition at 1 µM [1] of 80 to 100%.
`Cc1ccc(-n2nc(C(C)(C)C)cc2NC(=O)Nc2ccc(OCC(=O)N3CCn4c(nnc4C(F)(F)F)C3)c3c2CCC3)cc1Cl` [Compound 56, 1-[3-tert-butyl-1-(3-chloro-4-methylphenyl)-1H-pyrazol-5-yl]-3-(7-{2-oxo-2-[3-(trifluoromethyl)-5,6-dihydro[1,2,4]triazolo[4,3-a]pyrazin-7(8H)-yl]ethoxy}-2,3-dihydro-1H-inden-4-yl)urea] gave an inhibition at 1 µM [1] of 40 to 60%.
